# Measured values published in patent US20040142819A1, “Compositions and methods for synergistic weed control” (priority 2003, published 2004).
# Legend:
# [1] = system: Sorghum halepense (Johnsongrass); assay: Greenhouse post-emergence weed control of seedling johnsongrass, visual % control, Colby expected response
# Procedure: In this evaluation, seedling johnsongrass was grown in 9-cm diameter styrofoam cups in a soil medium of a 1:1 mixture of top-soil from a Freestone fine sandy loam (fine-loamy, siliceous, thermic Aquic Paleudalf) and masonry sand. The temperature in the greenhouse was maintained at 31 ″5° C. for several weeks until the plants were approximately 5-inch (13 cm) leaf seedlings. Said plants were then sprayed with an aqueous solution of the test compounds at the rates indicated in Tables Ia and Ib as measured in lbs of herbicide per acre. Each treatment was replicated 4 times and the average control % (on a visual basis) is shown in Table Ia for 10 days after treatment and Table Ib for 20 days after treatment.
# The methods described by Colby in “Calculating Synergistic and Antagonistic Responses of Herbicide Combinations,” 15 Weeds 20-22 (1967), were used to calculate interactions of herbicide tank mixtures. The expected response for tank mixtures was calculated by taking the product of the recorded values from the herbicides applied alone and dividing by 100.
# [2] = system: SORHAZ (johnsongrass, approximate height 3 feet); assay: Field plot weed control, visual % control, rhizome johnsongrass; type: in vivo
# Procedure: (§1) In this evaluation, seedling weeds of rhizome johnsongrass and white clover were grown in a field plot until they reached a height of 3 feet (0.9 m) and 3 inches (8 cm) respectively. The plants were then sprayed with an aqueous solution or emulsification of the test compounds at various rates as indicated in Table II. The control % (on a visual basis) is shown in Table II for 7 and 16 days after treatment.
# (§2) Sethoxydim is formulated as a 1.5 lb ai/g (0.68 kg ai/g) emulsification.
# (§3) Imazapyr is formulated as a 4.0 lb ai/g (1.8 kg ai/g) aqueous solution.
# SORHAZ is johnsongrass with an approximate height of 3 feet (0.9 m).
# [3] = system: TRFRE (white clover, approximate height 3 inches); assay: Field plot weed control, visual % control, white clover; type: in vivo
# Procedure: as §1, §2, §3
# TRFRE is white clover with an approximate height of 3 inches (8 cm).
# [4] = 10 Days After Treatment, Sethoxydim 0 lb/A, imidazolinone 0.008 lb/A (0.009 kg/ha)
# [5] = 10 Days After Treatment, Sethoxydim 0 lb/A, imidazolinone 0.016 lb/A (0.018 kg/ha)
# [6] = 10 Days After Treatment, Sethoxydim 0 lb/A, imidazolinone 0.032 lb/A (0.036 kg/ha)
# [7] = 20 Days After Treatment, Sethoxydim 0 lb/A, imidazolinone 0.008 lb/A (0.009 kg/ha)
# [8] = 20 Days After Treatment, Sethoxydim 0 lb/A, imidazolinone 0.016 lb/A (0.018 kg/ha)
# [9] = 20 Days After Treatment, Sethoxydim 0 lb/A, imidazolinone 0.032 lb/A (0.036 kg/ha)
# [10] = Treatment 3: graminicide 0, imidazolinone 0.008 lb/A (0.009 kg/ha)
# [11] = Treatment 2: graminicide 0.20 lb/A (0.22 kg/ha), imidazolinone 0
smiles,measurement,setting,value
"COCc1cnc(C2=NC(C)(C(C)C)C(=O)N2)c(C(=O)O)c1 (stereo not shown) [imazamox, 2-[4,5-dihydro-4-methyl-4-(1-methylethyl)-5-oxo-1H-imidazol-2-yl]-5(methoxymethyl)-3-pyridinecarboxylic acid]",Actual Control (%),"[1]; 10 Days After Treatment, Sethoxydim 0 lb/A, imidazolinone 0.004 lb/A (0.004 kg/ha)",12.5%
same,Actual Control (%),[1]; [4],12.5%
same,Actual Control (%),[1]; [5],10%
same,Actual Control (%),[1]; [6],10%
same,Actual Control (%),"[1]; 20 Days After Treatment, Sethoxydim 0 lb/A, imidazolinone 0.004 lb/A (0.004 kg/ha)",30%
same,Actual Control (%),[1]; [7],40%
same,Actual Control (%),[1]; [8],40%
same,Actual Control (%),[1]; [9],50%
"CC(C)C1(C)N=C(c2ncccc2C(=O)O)NC1=O (stereo not shown) [imazapyr, (″)-2-[4,5-dihydro-4-methyl-4-(1-methylethyl)-5-oxo-1H-imidazol-2-yl]-3-pyridinecar-boxylic acid]",SORHAZ 7 DAT Control (%),[2]; [10],0%
same,SORHAZ 16 DAT Control (%),[2]; [10],0%
same,TRFRE 7 DAT Control (%),[3]; [10],0%
same,TRFRE 16 DAT Control (%),[3]; [10],0%
"CCCC(=NOCC)C1=C(O)CC(CC(C)SCC)CC1=O (stereo not shown) [Sethoxydim, 2-[1-(ethoxyimino)butyl]-5-[2-(ethylthio)propyl]-3-hydroxy-2-cyclohexen-1-one]",SORHAZ 7 DAT Control (%),[2]; [11],26.7%
same,SORHAZ 16 DAT Control (%),[2]; [11],38.3%
same,Actual Control (%),"[1]; 10 Days After Treatment, Sethoxydim 0.1 lb/A (0.1 kg/ha), no imidazolinone",20%
same,Actual Control (%),"[1]; 10 Days After Treatment, Sethoxydim 0.2 lb/A (0.2 kg/ha), no imidazolinone",87.5%
same,Actual Control (%),"[1]; 20 Days After Treatment, Sethoxydim 0.1 lb/A (0.1 kg/ha), no imidazolinone",30%
same,Actual Control (%),"[1]; 20 Days After Treatment, Sethoxydim 0.2 lb/A (0.2 kg/ha), no imidazolinone",95%
same,TRFRE 7 DAT Control (%),[3]; [11],0%
same,TRFRE 16 DAT Control (%),[3]; [11],0%
"CC(C)C1(C)N=C(c2nc3ccccc3cc2C(=O)O)NC1=O (stereo not shown) [imazaquin, 2-(4,5-dihydro-4-methyl-4-(1-methyl-ethyl)-5-oxo-1H-imidazol-2-yl]-3-quinolinecarboxylic acid]",Actual Control (%),[1]; [4],0%
same,Actual Control (%),[1]; [5],0%
same,Actual Control (%),[1]; [6],0%
same,Actual Control (%),"[1]; 10 Days After Treatment, Sethoxydim 0 lb/A, imidazolinone 0.063 lb/A (0.070 kg/ha)",0%
same,Actual Control (%),[1]; [7],0%
same,Actual Control (%),[1]; [8],2.5%
same,Actual Control (%),[1]; [9],3.8%
same,Actual Control (%),"[1]; 20 Days After Treatment, Sethoxydim 0 lb/A, imidazolinone 0.063 lb/A (0.070 kg/ha)",5%
